Data as given in ChEMBL document CHEMBL3885881, “DrugMatrix”.

Organism: Rattus norvegicus
Experiment: DrugMatrix - Regimen: Daily Repeat
Type: toxicity, organism-based, Sprague-Dawley
Set-up: regimen Daily Repeat, gender Male, age 6-8 weeks
Conditions: in vivo, po, route oral GAVAGE, […]; for ABSOLUTE BASOPHIL / ABSOLUTE EOSINOPHIL / ABSOLUTE LYMPHOCYTE / ABSOLUTE MONOCYTE / ABSOLUTE SEGMENTED NEUTROPHIL / BASOPHIL / EOSINOPHIL / ERYTHROCYTE COUNT / HEMATOCRIT / HEMOGLOBIN / LEUKOCYTE COUNT / LYMPHOCYTE / MEAN CORPUSCULAR HEMOGLOBIN / MEAN CORPUSCULAR HEMOGLOBIN CONCENTRATION / MEAN CORPUSCULAR VOLUME / MONOCYTE / NEUTROPHIL / NUCLEATED RED BLOOD CELLS / PLATELET COUNT: tissue Blood; for ALANINE AMINOTRANSFERASE / ALBUMIN / ALKALINE PHOSPHATASE / ASPARTATE AMINOTRANSFERASE / BLOOD UREA NITROGEN / CARBON DIOXIDE / CHLORIDE / CHOLESTEROL / CREATINE PHOSPHOKINASE / CREATININE / GLUCOSE / LACTATE DEHYDROGENASE / LIPASE / PHOSPHORUS / POTASSIUM / SODIUM / TOTAL BILIRUBIN / TOTAL PROTEIN / URIC ACID: tissue Plasma
[1] = 1 mg/kg, 120 h, dose level Low, time 5 day
[2] = 14 mg/kg, 72 h, dose level High, time 3 day
[3] = 14 mg/kg, 120 h, dose level High, time 5 day

CCOC(=O)C1=C(C)NC(C)=C(C(=O)OCC)C1c1ccccc1/C=C/C(=O)OC(C)(C)C [LACIDIPINE]
ABSOLUTE BASOPHIL [1]: 0 CELLS/uL | ABSOLUTE EOSINOPHIL [1]: 0 CELLS/uL | ABSOLUTE LYMPHOCYTE [1]: 13674 CELLS/uL | ABSOLUTE MONOCYTE [1]: 253 CELLS/uL | ABSOLUTE SEGMENTED NEUTROPHIL [1]: 1206.33 CELLS/uL | BASOPHIL [1]: 0% | EOSINOPHIL [1]: 0% | ERYTHROCYTE COUNT [1]: 6.05 x10E6/uL | HEMATOCRIT [1]: 38.43% | HEMOGLOBIN [1]: 15 G/DL | LEUKOCYTE COUNT [1]: 15.13 x10E3/uL | LYMPHOCYTE [1]: 90.33% | MEAN CORPUSCULAR HEMOGLOBIN [1]: 24.8 pg | MEAN CORPUSCULAR HEMOGLOBIN CONCENTRATION [1]: 39.07 G/DL | MEAN CORPUSCULAR VOLUME [1]: 63.47 fL | MONOCYTE [1]: 1.67% | NEUTROPHIL [1]: 8% | NUCLEATED RED BLOOD CELLS [1]: 0.33 /100WBC | PLATELET COUNT [1]: 1182 x10E3/uL | ALANINE AMINOTRANSFERASE [1]: 60.33 u/L | ALBUMIN [1]: 4.13 G/DL | ALKALINE PHOSPHATASE [1]: 378.33 u/L | ASPARTATE AMINOTRANSFERASE [1]: 70.67 u/L | BLOOD UREA NITROGEN [1]: 12.67 mg/dL | CARBON DIOXIDE [1]: 30 mmol/L | CHLORIDE [1]: 99.67 MEQ/L | CHOLESTEROL [1]: 69 mg/dL | CREATINE PHOSPHOKINASE [1]: 271.67 u/L | CREATININE [1]: 0.17 mg/dL | GLUCOSE [1]: 166.33 mg/dL | LACTATE DEHYDROGENASE [1]: 125.67 u/L | LIPASE [1]: 10 u/L | PHOSPHORUS [1]: 10.93 mg/dL | POTASSIUM [1]: 6.75 MEQ/L | SODIUM [1]: 141.97 MEQ/L | TOTAL BILIRUBIN [1]: 0.17 mg/dL | TOTAL PROTEIN [1]: 5.83 G/DL | URIC ACID [1]: 1.9 mg/dL | ABSOLUTE BASOPHIL [2]: 0 CELLS/uL | ABSOLUTE EOSINOPHIL [2]: 0 CELLS/uL | ABSOLUTE LYMPHOCYTE [2]: 6598.33 CELLS/uL | ABSOLUTE MONOCYTE [2]: 95.33 CELLS/uL | ABSOLUTE SEGMENTED NEUTROPHIL [2]: 673 CELLS/uL | BASOPHIL [2]: 0% | EOSINOPHIL [2]: 0% | ERYTHROCYTE COUNT [2]: 6.39 x10E6/uL | HEMATOCRIT [2]: 38.67% | HEMOGLOBIN [2]: 15.2 G/DL | LEUKOCYTE COUNT [2]: 7.37 x10E3/uL | LYMPHOCYTE [2]: 89.67% | MEAN CORPUSCULAR HEMOGLOBIN [2]: 23.8 pg | MEAN CORPUSCULAR HEMOGLOBIN CONCENTRATION [2]: 39.33 G/DL | MEAN CORPUSCULAR VOLUME [2]: 60.53 fL | MONOCYTE [2]: 1.33% | NEUTROPHIL [2]: 9% | NUCLEATED RED BLOOD CELLS [2]: 0.33 /100WBC | PLATELET COUNT [2]: 1020.33 x10E3/uL | ALANINE AMINOTRANSFERASE [2]: 81.67 u/L | ALBUMIN [2]: 4 G/DL | ALKALINE PHOSPHATASE [2]: 315.33 u/L | ASPARTATE AMINOTRANSFERASE [2]: 94 u/L | BLOOD UREA NITROGEN [2]: 9.33 mg/dL | CARBON DIOXIDE [2]: 25 mmol/L | CHLORIDE [2]: 94.33 MEQ/L | CHOLESTEROL [2]: 62.33 mg/dL | CREATINE PHOSPHOKINASE [2]: 287 u/L | CREATININE [2]: 0.4 mg/dL | GLUCOSE [2]: 140 mg/dL | LACTATE DEHYDROGENASE [2]: 223.33 u/L | LIPASE [2]: 9.67 u/L | PHOSPHORUS [2]: 8.63 mg/dL | POTASSIUM [2]: 4.28 MEQ/L | SODIUM [2]: 137.47 MEQ/L | TOTAL BILIRUBIN [2]: 0.2 mg/dL | TOTAL PROTEIN [2]: 5.47 G/DL | URIC ACID [2]: 0.53 mg/dL | ABSOLUTE BASOPHIL [3]: 0 CELLS/uL | ABSOLUTE EOSINOPHIL [3]: 59.67 CELLS/uL | ABSOLUTE LYMPHOCYTE [3]: 14336 CELLS/uL | ABSOLUTE MONOCYTE [3]: 190.33 CELLS/uL | ABSOLUTE SEGMENTED NEUTROPHIL [3]: 2280.67 CELLS/uL | BASOPHIL [3]: 0% | EOSINOPHIL [3]: 0.33% | ERYTHROCYTE COUNT [3]: 6.95 x10E6/uL | HEMATOCRIT [3]: 41.6% | HEMOGLOBIN [3]: 16.07 G/DL | LEUKOCYTE COUNT [3]: 16.87 x10E3/uL | LYMPHOCYTE [3]: 85.33% | MEAN CORPUSCULAR HEMOGLOBIN [3]: 23.17 pg | MEAN CORPUSCULAR HEMOGLOBIN CONCENTRATION [3]: 38.67 G/DL | MEAN CORPUSCULAR VOLUME [3]: 59.9 fL | MONOCYTE [3]: 1% | NEUTROPHIL [3]: 13.33% | NUCLEATED RED BLOOD CELLS [3]: 0 /100WBC | PLATELET COUNT [3]: 1126 x10E3/uL | ALANINE AMINOTRANSFERASE [3]: 90.33 u/L | ALBUMIN [3]: 4.47 G/DL | ALKALINE PHOSPHATASE [3]: 262.33 u/L | ASPARTATE AMINOTRANSFERASE [3]: 95.67 u/L | BLOOD UREA NITROGEN [3]: 10.33 mg/dL | CARBON DIOXIDE [3]: 25.33 mmol/L | CHLORIDE [3]: 97.67 MEQ/L | CHOLESTEROL [3]: 58.67 mg/dL | CREATINE PHOSPHOKINASE [3]: 234.67 u/L | CREATININE [3]: 0.14 mg/dL | GLUCOSE [3]: 154.67 mg/dL | LACTATE DEHYDROGENASE [3]: 217 u/L | LIPASE [3]: 9.33 u/L | PHOSPHORUS [3]: 11.23 mg/dL | POTASSIUM [3]: 4.62 MEQ/L | SODIUM [3]: 138.03 MEQ/L | TOTAL BILIRUBIN [3]: 0.33 mg/dL | TOTAL PROTEIN [3]: 5.93 G/DL | URIC ACID [3]: 1.6 mg/dL
